In PubChem BioAssay AID2060885 (Molecular Pharmacology Branch, DTP, NCI, 2025):

Tested on: NCI-H23 complex spheroids with HUVEC/MSC, viability
Test: Anticancer human tumor NCI-H23 cell line growth inhibition [RAS]
Conditions: for IC50: curve of first compound; for viability, T/C: stronger effect = lower value; active = viability on the fitted dose curve at most 10% of control; inactive = the rest
Source text: RAS pathway inhibitors in Combinations in Complex Spheroids
A high-throughput screen of multi-cell type tumor spheroids was designed to identify active combinations of RAS pathway inhibitors and targeted small molecules. Complex spheroids include a stromal component modeled by human endothelial cells (HUVEC) and fibroblasts modeled by human mesenchymal stem cells (MSCs). The concentration ranges selected for each drug and investigational agent were based upon clinically achievable concentrations if the clinical Cmax of the agent was known.
Compounds. The drugs and investigational agents: abemaciclib (NSC768073), cobimetinib (NSC768068), divarasib (GDC6063, NSC841802), docetaxel (NSC628503), GDC-1971 (RLY-1971, NSC841576), gemcitabine (NSC613327), inavolisib (NSC800729), ipatasertib (NSC767898), KB-0742 (NSC834161), MRTX-1133 (NSC836407), osimertinib (NSC779217), RMC-4630 (NSC839698), RMC-6236 (NSC851965), RMC-6291 (NSC852671), Ro-3306 (NSC812927), sapanisertib (NSC764658), SN-38 (NSC673596), staurosporine (NSC755774), SY5609 (NSC837396), and tovorafenib (DAY101, NSC766906), were obtained from the National Cancer Institute (NCI) Developmental Therapeutics Program Chemical Repository. The FDA-approved anticancer drug set is available from the NCI Developmental Therapeutics Program. […] The stock solutions were prepared in dimethyl sulfoxide (DMSO, Sigma-Aldrich, St. Louis, MO, cat. D2650) at 800-fold the tested concentration and stored at -70 degrees C prior to their use. All drugs and investigational agents were tested over a range starting from a high concentration at or near the clinical Cmax and decreasing in half-log increments. If the clinical Cmax for an agent had not been determined, the highest concentration tested was 10 microM.
Cell Culture. All cells were maintained in an incubator at 37 degrees C and 5% CO2 with 95% humidity. The PDC lines were cultured according to standard operating procedures established by the NCI PDMR. All PDCs were thawed and cultured in Matrigel-coated flasks prepared with a working solution of 1X Ham's F-12 nutrient mix, without supplementation (Invitrogen, Waltham, MA, cat. 11765054), 100 U/mL penicillin-streptomycin (Invitrogen, cat. 15140122), and 2.5% Matrigel (Corning Inc., Corning, NY, cat. 354248) for the first three passages. The 362531-283-R-J2-PDC and 782815-120-R-J1-PDC lines were cultured in 6C/Colon 1B media, which includes advanced DMEM/F-12 (Thermo Fisher Scientific, cat. 12634028), 10 mM HEPES (Thermo Fisher Scientific, cat. 15630080), 1X GlutaMAX supplement (Thermo Fisher Scientific, cat. 35050061), 0.1 mg/mL primocin (InvivoGen, San Diego, CA, cat. ant-pm-2), 10% defined fetal bovine serum, heat inactivated (HyClone Laboratories Inc., Logan, UT, cat. SH30070.03HI), 50% L-WRN conditioned media (ATCC, cat. CRL-3276), 1.25 mM N-Acetyl-L-cysteine (Sigma-Aldrich, cat. A9165), 10 mM nicotinamide (Sigma-Aldrich, cat. N0636), 1X B-27 supplement (Thermo Fisher Scientific, cat. 17504044), 1X N-2 supplement (Thermo Fisher Scientific, cat. 17502048), 50 ng/mL human EGF (Thermo Fisher Scientific, cat. PHG0311), and 10 microM Y-27632 dihydrochloride (Tocris Bioscience, cat. 1254). The K12877-001-R-J1-PDC line was cultured in 6I media, which includes all 6C/Colon 1B media plus 10 ng/mL human FGF-10 (PeproTech, cat. 100-26), 1 ng/mL human FGF-2 (PeproTech, cat. 100-18B), 1 µM prostaglandin E2 (Tocris Bioscience, cat. 2296), […] hydrocortisone (Sigma-Aldrich, cat. H4001), and […] bovine insulin (Sigma-Aldrich, cat. I6634). The K86415-001-R-J1-PDC line was cultured in 6D media, which includes all 6C/Colon 1B media components minus the L-WRN conditioned media. The 485176-168-R4-J1-PDC was cultured in PANC media, which includes all 6C/Colon 1B media plus 100 ng/mL human FGF-10 (PeproTech, cat. 100-26), 500 nM SB-431542 (Selleckchem, cat. S1067), and 10 nM gastrin (Tocris Bioscience, cat. 3006). […]

[1] = second compound 0.0316 µM, first compound 0.0316 µM
[2] = second compound 0.0316 µM, first compound 0.1 µM
[3] = second compound 0.0316 µM, first compound 0.316 µM
[4] = second compound 0.0316 µM, first compound 1 µM
[5] = second compound 0.0316 µM, first compound 3.16 µM
[6] = second compound 0.0316 µM, first compound 10 µM
[7] = second compound 0.1 µM, first compound 0.0316 µM
[8] = second compound 0.1 µM, first compound 0.1 µM
[9] = second compound 0.1 µM, first compound 0.316 µM
[10] = second compound 0.1 µM, first compound 1 µM
[11] = second compound 0.1 µM, first compound 3.16 µM
[12] = second compound 0.1 µM, first compound 10 µM
[13] = second compound 0.316 µM, first compound 0.0316 µM
[14] = second compound 0.316 µM, first compound 0.1 µM
[15] = second compound 0.316 µM, first compound 0.316 µM
[16] = second compound 0.316 µM, first compound 1 µM
[17] = second compound 0.316 µM, first compound 3.16 µM
[18] = second compound 0.316 µM, first compound 10 µM
[19] = second compound 1 µM, first compound 0.0316 µM
[20] = second compound 1 µM, first compound 0.1 µM
[21] = second compound 1 µM, first compound 0.316 µM
[22] = second compound 1 µM, first compound 1 µM
[23] = second compound 1 µM, first compound 3.16 µM
[24] = second compound 1 µM, first compound 10 µM
[25] = second compound 3.16 µM, first compound 0.0316 µM
[26] = second compound 3.16 µM, first compound 0.1 µM
[27] = second compound 3.16 µM, first compound 0.316 µM
[28] = second compound 3.16 µM, first compound 1 µM
[29] = second compound 3.16 µM, first compound 3.16 µM
[30] = second compound 3.16 µM, first compound 10 µM
[31] = second compound 10 µM, first compound 0.0316 µM
[32] = second compound 10 µM, first compound 0.1 µM
[33] = second compound 10 µM, first compound 0.316 µM
[34] = second compound 10 µM, first compound 1 µM
[35] = second compound 10 µM, first compound 3.16 µM
[36] = second compound 10 µM, first compound 10 µM

CC(C)NCC(C(=O)N1CCN(c2ncnc3c2C(C)CC3O)CC1)c1ccc(Cl)cc1 (stereo unspecified) + C#Cc1c(F)ccc2cc(O)cc(-c3ncc4c(N5CC6CCC(C5)N6)nc(OCC56CCCN5CC(F)C6)nc4c3F)c12
> 10000 nM: IC50 (second compound 0.0316 µM) | IC50 (second compound 0.1 µM) | IC50 (second compound 0.316 µM) | IC50 (second compound 1 µM)
< 31.6 nM: IC50 (second compound 10 µM)
inactive: viability, T/C [1] 100% | viability, T/C [2] 133% | viability, T/C [3] 89.4% | viability, T/C [4] 90.5% | viability, T/C [5] 76% | viability, T/C [6] 74.2% | viability, T/C [7] 107% | viability, T/C [8] 122% | viability, T/C [9] 95.3% | viability, T/C [10] 91% | viability, T/C [11] 69.7% | viability, T/C [12] 66.6% | viability, T/C [13] 122% | viability, T/C [14] 131% | viability, T/C [15] 99.7% | viability, T/C [16] 84.4% | viability, T/C [17] 70.2% | viability, T/C [18] 55.7% | viability, T/C [19] 108% | viability, T/C [20] 101% | viability, T/C [21] 73.6% | viability, T/C [22] 66.7% | viability, T/C [23] 56.1% | viability, T/C [24] 49% | viability, T/C [25] 68.6% | viability, T/C [26] 69% | viability, T/C [27] 51.6% | viability, T/C [28] 44.9% | viability, T/C [29] 37.9% | viability, T/C [30] 32.6% | viability, T/C [31] 38.4% | viability, T/C [32] 40.9% | viability, T/C [33] 34.1% | viability, T/C [34] 26.1% | viability, T/C [35] 22.8% | viability, T/C [36] 18.5%
520 nM: IC50 (second compound 3.16 µM)

CC(C)n1nc(-c2ccc3oc(N)nc3c2)c2c(N)ncnc21 + C#Cc1c(F)ccc2cc(O)cc(-c3ncc4c(N5CC6CCC(C5)N6)nc(OCC56CCCN5CC(F)C6)nc4c3F)c12
< 0.316 nM: IC50 (second compound 10 µM)
53.9 nM: IC50 (second compound 0.0316 µM)
inactive: viability, T/C (second compound 0.0316 µM, first compound 0.000316 µM) 105% | viability, T/C (second compound 0.0316 µM, first compound 0.001 µM) 114% | viability, T/C (second compound 0.0316 µM, first compound 0.00316 µM) 89.6% | viability, T/C (second compound 0.0316 µM, first compound 0.01 µM) 73.9% | viability, T/C [1] 51.4% | viability, T/C [2] 47.1% | viability, T/C (second compound 0.1 µM, first compound 0.000316 µM) 108% | viability, T/C (second compound 0.1 µM, first compound 0.001 µM) 113% | viability, T/C (second compound 0.1 µM, first compound 0.00316 µM) 84.7% | viability, T/C (second compound 0.1 µM, first compound 0.01 µM) 71.4% | viability, T/C [7] 53.2% | viability, T/C [8] 42.8% | viability, T/C (second compound 0.316 µM, first compound 0.000316 µM) 104% | viability, T/C (second compound 0.316 µM, first compound 0.001 µM) 106% | viability, T/C (second compound 0.316 µM, first compound 0.00316 µM) 83.7% | viability, T/C (second compound 0.316 µM, first compound 0.01 µM) 61.6% | viability, T/C [13] 46.1% | viability, T/C [14] 39.4% | viability, T/C (second compound 1 µM, first compound 0.000316 µM) 83.6% | viability, T/C (second compound 1 µM, first compound 0.001 µM) 93.1% | viability, T/C (second compound 1 µM, first compound 0.00316 µM) 72.8% | viability, T/C (second compound 1 µM, first compound 0.01 µM) 56.4% | viability, T/C [19] 39.6% | viability, T/C [20] 32.3% | viability, T/C (second compound 3.16 µM, first compound 0.000316 µM) 56.4% | viability, T/C (second compound 3.16 µM, first compound 0.001 µM) 60.4% | viability, T/C (second compound 3.16 µM, first compound 0.00316 µM) 48.4% | viability, T/C (second compound 3.16 µM, first compound 0.01 µM) 38.3% | viability, T/C [25] 36.8% | viability, T/C [26] 22.9% | viability, T/C (second compound 10 µM, first compound 0.000316 µM) 38.8% | viability, T/C (second compound 10 µM, first compound 0.001 µM) 38.6% | viability, T/C (second compound 10 µM, first compound 0.00316 µM) 28.8% | viability, T/C (second compound 10 µM, first compound 0.01 µM) 26.9% | viability, T/C [31] 24.1% | viability, T/C [32] 17%
43.2 nM: IC50 (second compound 0.1 µM)
14.8 nM: IC50 (second compound 1 µM)
22.2 nM: IC50 (second compound 0.316 µM)
2.86 nM: IC50 (second compound 3.16 µM)

CC(Nc1ccc2c(c1)OCCn1cc(N3C(=O)OCC3C(F)F)nc1-2)C(N)=O (stereo unspecified) + C#Cc1c(F)ccc2cc(O)cc(-c3ncc4c(N5CC6CCC(C5)N6)nc(OCC56CCCN5CC(F)C6)nc4c3F)c12
inactive: viability, T/C [1] 96.5% | viability, T/C [2] 112% | viability, T/C [3] 74.5% | viability, T/C [4] 70.5% | viability, T/C [5] 62.9% | viability, T/C [6] 74% | viability, T/C [7] 108% | viability, T/C [8] 119% | viability, T/C [9] 77.3% | viability, T/C [10] 69.3% | viability, T/C [11] 64.9% | viability, T/C [12] 71.2% | viability, T/C [13] 107% | viability, T/C [14] 107% | viability, T/C [15] 66.2% | viability, T/C [16] 66.8% | viability, T/C [17] 63.7% | viability, T/C [18] 60.9% | viability, T/C [19] 98.8% | viability, T/C [20] 86.5% | viability, T/C [21] 60.8% | viability, T/C [22] 54% | viability, T/C [23] 49.5% | viability, T/C [24] 63.8% | viability, T/C [25] 61.2% | viability, T/C [26] 63.6% | viability, T/C [27] 39.8% | viability, T/C [28] 40.4% | viability, T/C [29] 43.1% | viability, T/C [30] 48.1% | viability, T/C [31] 36.6% | viability, T/C [32] 38.7% | viability, T/C [33] 27.5% | viability, T/C [34] 23.4% | viability, T/C [35] 30.8% | viability, T/C [36] 24.2%
207 nM: IC50 (second compound 3.16 µM)
< 31.6 nM: IC50 (second compound 10 µM)
> 10000 nM: IC50 (second compound 0.0316 µM) | IC50 (second compound 0.1 µM) | IC50 (second compound 0.316 µM) | IC50 (second compound 1 µM)
